In patent US11612604B2, “Methods of treating cancer with PLK4 inhibitors” (LUDWIG INSTITUTE FOR CANCER RESEARCH LTD, priority 2017, dated 2023):

molecular target: T1, PLK4 (Homo sapiens, UniProt O00444); assay: Activity (IC50) of the Table 1 compounds as PLK4 inhibitors; type: biochemical; details: Table 1, IC50 class
T1 sequence (O00444 1-970): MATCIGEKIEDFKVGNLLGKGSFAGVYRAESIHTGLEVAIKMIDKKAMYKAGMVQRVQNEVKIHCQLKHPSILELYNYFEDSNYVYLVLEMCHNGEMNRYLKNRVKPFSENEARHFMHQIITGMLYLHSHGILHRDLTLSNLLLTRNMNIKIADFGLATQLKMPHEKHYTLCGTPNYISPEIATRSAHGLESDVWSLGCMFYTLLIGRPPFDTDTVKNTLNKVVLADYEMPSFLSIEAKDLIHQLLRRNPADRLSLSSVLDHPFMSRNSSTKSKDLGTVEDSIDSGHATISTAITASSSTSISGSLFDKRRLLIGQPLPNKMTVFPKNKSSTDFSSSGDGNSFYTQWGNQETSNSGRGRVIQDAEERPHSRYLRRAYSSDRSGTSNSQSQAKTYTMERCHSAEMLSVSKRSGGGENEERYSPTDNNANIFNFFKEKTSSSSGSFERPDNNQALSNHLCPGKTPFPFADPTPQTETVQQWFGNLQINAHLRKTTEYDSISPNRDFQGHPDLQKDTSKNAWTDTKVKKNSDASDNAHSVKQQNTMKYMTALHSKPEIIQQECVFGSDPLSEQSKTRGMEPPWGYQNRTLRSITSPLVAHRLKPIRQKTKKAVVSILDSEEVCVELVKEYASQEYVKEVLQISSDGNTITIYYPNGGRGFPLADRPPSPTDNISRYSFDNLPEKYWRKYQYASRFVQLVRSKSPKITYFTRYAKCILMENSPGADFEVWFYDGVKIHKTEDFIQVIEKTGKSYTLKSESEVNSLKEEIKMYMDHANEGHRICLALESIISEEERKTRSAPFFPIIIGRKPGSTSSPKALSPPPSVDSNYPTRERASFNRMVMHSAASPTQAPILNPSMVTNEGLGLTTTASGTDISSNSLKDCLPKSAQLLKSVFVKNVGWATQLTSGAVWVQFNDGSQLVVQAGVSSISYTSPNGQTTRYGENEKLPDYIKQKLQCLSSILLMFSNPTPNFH

SMILES	IC50 [nM]
COc1c(Nc2cc(C)[nH]n2)nc(Sc2ccc(NC(=O)C3CC3)cc2)nc1N1CCN(C)CC1	< 100
Cc1cc(Nc2nc(Sc3ccc(NC(=O)C4CC4)cc3)nc(N3CCOCC3)c2C)n[nH]1	< 100
COc1c(C)nc(Sc2ccc(NC(=O)C3CC3)cc2)nc1Nc1cc(C)[nH]n1	< 100
Cc1cc(Nc2nc(Sc3ccc(NC(=O)C4CC4)cc3)nc3c2C(C)CC3)n[nH]1 (centres unmarked)	< 100
Cc1cc(Nc2nc(Sc3ccc(NC(=O)C4CC4)cc3)nc(N3CCN(C(C)C)CC3)c2C)n[nH]1	< 100
CC(=O)N1CCN(c2nc(Sc3ccc(NC(=O)C4CC4)cc3)nc(Nc3cc(C)[nH]n3)c2C)CC1	< 100
COCCN1CCN(c2nc(Sc3ccc(NC(=O)C4CC4)cc3)nc(Nc3cc(C)[nH]n3)c2C)CC1	< 100
Cc1cc(Nc2nc(Sc3ccc(NC(=O)C4CC4)cc3)nc(N3CCN(C)C(C)C3)c2C)n[nH]1 (centres unmarked)	< 100
Cc1cc(Nc2nc(Sc3ccc(NC(=O)C4CC4)cc3)nc(N3CCN(CCN(C)C)CC3)c2C)n[nH]1	< 100
Cc1cc(Nc2nc(Sc3ccc(NC(=O)C4CC4)cc3)nc(N(C)C)c2C)n[nH]1	< 100
CCN(C)c1nc(Sc2ccc(NC(=O)C3CC3)cc2)nc(Nc2cc(C)[nH]n2)c1C	< 100
COCC(=O)N1CCN(c2nc(Sc3ccc(NC(=O)C4CC4)cc3)nc(Nc3cc(C)[nH]n3)c2OC)CC1	< 100
COCCC(=O)N1CCN(c2nc(Sc3ccc(NC(=O)C4CC4)cc3)nc(Nc3cc(C)[nH]n3)c2OC)CC1	< 100
COc1c(Nc2cc(C)[nH]n2)nc(Sc2ccc(NC(=O)C3CC3)cc2)nc1N1CCN(CC2CC2)CC1	< 100
CNCCN1CCN(c2nc(Sc3ccc(NC(=O)C4CC4)cc3)nc(Nc3cc(C)[nH]n3)c2OC)CC1	< 100
CCC1CCc2nc(Sc3ccc(NC(=O)C4CC4)cc3)nc(Nc3cc(C)[nH]n3)c21 (centres unmarked)	< 100
Cc1cc(Nc2nc(Sc3ccc(NC(=O)C4CCC4)cc3)nc(N3CCN(C)CC3)c2C)n[nH]1	< 100
CC(=O)Nc1ccc(Sc2nc(Nc3cc(C)[nH]n3)c(C)c(N3CCN(C)CC3)n2)cc1	< 100
CCOc1c(Nc2c[nH]c(C)c2)nc(Sc2ccc(NC(=O)C3CCCC3)cc2)nc1N1CCN(C(=O)CCOC)CC1	100 to 1000
CC(=O)Nc1ccc(Sc2nc(Nc3cc(C)[nH]n3)c(C)c(N3CCN(CCN(C)C)CC3)n2)cc1	< 100
COCCN1CCN(c2nc(Sc3ccc(NC(C)=O)cc3)nc(Nc3cc(C)[nH]n3)c2C)CC1	< 100
CC(=O)Nc1ccc(Sc2nc(Nc3cc(C)[nH]n3)c(C)c(N3CCN(C(C)=O)CC3)n2)cc1	< 100
CC(=O)Nc1ccc(Sc2nc(Nc3cc(C)[nH]n3)c(C)c(N3CCNCC3)n2)cc1	< 100
CC(=O)Nc1ccc(Sc2nc(Nc3cc(C)[nH]n3)c(C)c(N3CCOCC3)n2)cc1	< 100
CC(=O)Nc1ccc(Sc2nc(Nc3cc(C)[nH]n3)c(C)c(N3CCN(C4CCN(C)CC4)CC3)n2)cc1	< 100
Cc1cc(Nc2nc(Sc3ccc(NC(=O)C4CCCC4)cc3)nc(N3CCN(CCN(C)C)CC3)c2C)n[nH]1	< 100

SMILES	IC50 [nM]
COCCN1CCN(c2nc(Sc3ccc(NC(=O)C4CCCC4)cc3)nc(Nc3cc(C)[nH]n3)c2C)CC1	< 100
CC(=O)N1CCN(c2nc(Sc3ccc(NC(=O)C4CCCC4)cc3)nc(Nc3cc(C)[nH]n3)c2C)CC1	< 100
Cc1cc(Nc2nc(Sc3ccc(NC(=O)C4CCCC4)cc3)nc(N3CCNCC3)c2C)n[nH]1	< 100
Cc1cc(Nc2nc(Sc3ccc(NC(=O)C4CCCC4)cc3)nc(N3CCOCC3)c2C)n[nH]1	< 100
Cc1cc(Nc2nc(Sc3ccc(NC(=O)C4CCCC4)cc3)nc(N3CCN(C4CCN(C)CC4)CC3)c2C)n[nH]1	< 100
COc1c(Nc2cc(C)[nH]n2)nc(Sc2ccc(NC(C)=O)cc2)nc1N1CCCCC1	< 100
CC(=O)Nc1ccc(Sc2nc(Nc3cc(C)[nH]n3)c(C)c(N(C)C(C)C)n2)cc1	< 100
CC(=O)Nc1ccc(Sc2nc(Nc3cc(C)[nH]n3)c(C)c(N3CCN(C(=O)CCN(C)C)CC3)n2)cc1	< 100
COCC(=O)N1CCN(c2nc(Sc3ccc(NC(C)=O)cc3)nc(Nc3cc(C)[nH]n3)c2C)CC1	< 100
Cc1cc(Nc2nc(Sc3ccc(NC(=O)C4CCCC4)cc3)nc(N(C)C(C)C)c2C)n[nH]1	< 100
COCC(=O)N1CCN(c2nc(Sc3ccc(NC(=O)C4CCCC4)cc3)nc(Nc3cc(C)[nH]n3)c2C)CC1	< 100
Cc1cc(Nc2nc(Sc3ccc(NC(=O)C4CCCC4)cc3)nc(N3CCCCC3)c2C)n[nH]1	< 100
CCN(C)c1nc(Sc2ccc(NC(=O)C3CCCC3)cc2)nc(Nc2cc(C)[nH]n2)c1C	< 100
Cc1cc(Nc2nc(Sc3ccc(NC(=O)C4CCCC4)cc3)nc(N(C)C)c2C)n[nH]1	< 100
CC(=O)Nc1ccc(Sc2nc(Nc3cc(C)[nH]n3)c(C)c(N3CCC(O)CC3)n2)cc1	< 100
CC(=O)Nc1ccc(Sc2nc(Nc3cc(C)[nH]n3)c(C)c(N3CCCC3)n2)cc1	< 100
CC(=O)Nc1ccc(Sc2nc(Nc3cc(C)[nH]n3)c(C)c(N3CCCCCC3)n2)cc1	< 100
CC(=O)Nc1ccc(Sc2nc(Nc3cc(C)[nH]n3)c(C)c(N3CC=CCC3)n2)cc1	< 100
CC(=O)Nc1ccc(Sc2nc(Nc3cc(C)[nH]n3)c(C)c(N3CC=C(F)CC3)n2)cc1	< 100
CC(=O)Nc1ccc(Sc2nc(Nc3cc(C)[nH]n3)c(C)c(N3CCC(C)CC3)n2)cc1	< 100
CC(=O)Nc1ccc(Sc2nc(Nc3cc(C)[nH]n3)c(Cl)c(N3CCN(C)CC3)n2)cc1	< 100
CSc1nc(Nc2cc(C)[nH]n2)c(Cl)c(N2CCCCC2)n1	< 100
Cc1cc(Nc2nc(Sc3ccccc3)nc(N3CCCCC3)c2C)n[nH]1	< 100
Cc1ccc(Sc2nc(Nc3cc(C)[nH]n3)c(C)c(N3CCCCC3)n2)cc1	< 100
Cc1cc(Nc2nc(Sc3ccc(N)cc3)nc(N3CCCCC3)c2C)n[nH]1	< 100
CNC(=O)Nc1ccc(Sc2nc(Nc3cc(C)[nH]n3)c(C)c(N3CCCCC3)n2)cc1	< 100

SMILES	IC50 [nM]
COC(=O)Nc1ccc(Sc2nc(Nc3cc(C)[nH]n3)c(C)c(N3CCCCC3)n2)cc1	< 100
CC(=O)Nc1ccc(Sc2nc(Nc3cc(C)[nH]n3)c(C)c(N3CCC(F)(F)CC3)n2)cc1	< 100
CC(=O)Nc1ccc(Sc2nc(Nc3cc(C)[nH]n3)c(C)c(N3CCC(F)CC3)n2)cc1	< 100
COc1c(Nc2cc(C)[nH]n2)nc(Sc2ccc(S(=O)(=O)Cc3ccccc3)cc2)nc1N1CCC(CCN2CCN(C)CC2)CC1	< 100
COc1c(Nc2cc(C)[nH]n2)nc(Sc2ccc(S(=O)(=O)Cc3ccccc3)cc2)nc1N1CCN(CCN2CCCCCC2)CC1	< 100
COc1c(Nc2cc(C)[nH]n2)nc(Sc2ccc(NC(C)=O)cc2)nc1N1CCN(C2CCN(C)CC2)CC1	< 100
COc1c(Nc2cc(C)[nH]n2)nc(Sc2ccc(NC(C)=O)cc2)nc1N1CCN(C)CC1	< 100
CC(=O)Nc1ccc(Sc2nc(Nc3cc(C)[nH]n3)c(Cl)c(N3CCCCC3)n2)cc1	< 100
CNc1ccc(Sc2nc(Nc3cc(C)[nH]n3)c(C)c(N3CCCCC3)n2)cc1	< 100
Cc1cc(Nc2nc(Sc3ccc(N(C)C)cc3)nc(N3CCCCC3)c2C)n[nH]1	< 100
CC(=O)Nc1ccc(Sc2nc(Nc3cc(C)[nH]n3)cc(N3CCCCC3)n2)cc1	< 100
COc1c(Nc2cc(C)[nH]n2)nc(Sc2ccc(NC(C)=O)cc2)nc1N1CCNCC1	< 100
CCN(CC)c1nc(Sc2ccc(NC(C)=O)cc2)nc(Nc2cc(C)[nH]n2)c1OC	< 100
CCN(C)c1nc(Sc2ccc(NC(C)=O)cc2)nc(Nc2cc(C)[nH]n2)c1OC	< 100
COc1c(Nc2cc(C)[nH]n2)nc(Sc2ccc(NC(C)=O)cc2)nc1N(C)C	< 100
COc1c(Nc2cc(C)[nH]n2)nc(Sc2ccc(NC(C)=O)cc2)nc1N1CCOCC1	< 100
COc1c(Nc2cc(C)[nH]n2)nc(Sc2ccc(NC(C)=O)cc2)nc1N1CCN(C(C)=O)CC1	< 100
COCCN1CCN(c2nc(Sc3ccc(NC(C)=O)cc3)nc(Nc3cc(C)[nH]n3)c2OC)CC1	< 100
COc1c(Nc2cc(C)[nH]n2)nc(Sc2ccc(NC(C)=O)cc2)nc1N1CCCC1	< 100
COc1c(Nc2cc(C)[nH]n2)nc(Sc2ccc(NC(C)=O)cc2)nc1N(C)C(C)C	< 100
CC(=O)Nc1ccc(Sc2nc(Nc3cc(C)[nH]n3)c(C)c(N3CCCCC3C)n2)cc1 (centres unmarked)	< 100
CCN1CCN(c2nc(Sc3ccc(NC(C)=O)cc3)nc(Nc3cc(C)[nH]n3)c2C)CC1	< 100
COCC(=O)N1CCN(c2nc(Sc3ccc(NC(C)=O)cc3)nc(Nc3cc(C)[nH]n3)c2OC)CC1	< 100
COc1c(Nc2cc(C)[nH]n2)nc(Sc2ccc(NC(C)=O)cc2)nc1N1CCC(F)(F)CC1	< 100
COc1c(Nc2cc(C)[nH]n2)nc(Sc2ccc(NC(C)=O)cc2)nc1N1CCC(F)CC1	< 100
